# Laboratory results taken from PMC5862592, “CDK8/19 inhibition induces premature G1/S transition and ATR-dependent cell death in prostate cancer cells” (Oncotarget, 2018).
# Read-outs that look alike come from different tables or passages of the source.
# What was measured:
# Test in all cases: biochemical
# Set-up in all cases: KINOMEscan active site-directed competition binding assay (DiscoveRx), 456 kinases, per cent of control at 300 nM
# Details in all cases: read-out: Percent of Control (%)
# LIMK2 = LIMK2 (Homo sapiens, UniProt P53671)
# How it was run: (§1)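 Active site-directed competition binding (KINOMEscan) across a 456-kinase panel, compounds tested at 300 nmol/L.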
# MEK5 = biological target: T1, MEK5 (Homo sapiens, UniProt Q13163)
# T1 construct: gene MAP2K5
# How it was run: as §1
# EPHA1 = EPHA1 (Homo sapiens, UniProt P21709)
# How it was run: as §1
# CAMKK2 = CAMKK2 (Homo sapiens, UniProt Q96RR4)
# How it was run: as §1
# PIK3CA(H1047Y) = PIK3CA(H1047Y) (Homo sapiens, UniProt P42336, H1047Y)
# How it was run: as §1
# [1] = biological target: T2, RSK4(Kin.Dom.2-C-terminal) (Homo sapiens, UniProt Q9UK32)
# T2 construct: gene RPS6KA6; Kin.Dom.2-C-terminal
# T2 sequence (Q9UK32 whole entry): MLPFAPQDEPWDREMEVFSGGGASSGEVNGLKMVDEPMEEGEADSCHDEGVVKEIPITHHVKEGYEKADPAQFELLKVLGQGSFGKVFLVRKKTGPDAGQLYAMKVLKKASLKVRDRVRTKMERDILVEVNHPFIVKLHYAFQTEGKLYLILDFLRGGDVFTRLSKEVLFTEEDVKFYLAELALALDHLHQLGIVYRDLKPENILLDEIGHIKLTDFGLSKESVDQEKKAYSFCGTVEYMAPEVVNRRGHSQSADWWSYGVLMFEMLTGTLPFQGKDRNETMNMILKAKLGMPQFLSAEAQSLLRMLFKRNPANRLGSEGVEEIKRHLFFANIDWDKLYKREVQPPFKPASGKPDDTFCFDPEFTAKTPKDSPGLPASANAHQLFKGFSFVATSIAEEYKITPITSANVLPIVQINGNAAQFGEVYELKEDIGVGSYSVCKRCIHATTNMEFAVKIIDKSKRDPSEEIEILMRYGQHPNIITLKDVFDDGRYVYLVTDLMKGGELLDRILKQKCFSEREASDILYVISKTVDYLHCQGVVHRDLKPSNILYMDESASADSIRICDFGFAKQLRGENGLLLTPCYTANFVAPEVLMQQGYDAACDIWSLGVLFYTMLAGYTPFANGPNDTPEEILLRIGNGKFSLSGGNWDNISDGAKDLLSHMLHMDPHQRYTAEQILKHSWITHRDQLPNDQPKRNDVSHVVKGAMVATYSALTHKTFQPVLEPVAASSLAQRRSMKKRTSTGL
# How it was run: as §1
# TRKC = biological target: T3, TRKC (Homo sapiens, UniProt Q16288)
# T3 construct: gene NTRK3
# How it was run: as §1
# SIK = biological target: T4, SIK (Homo sapiens, UniProt P57059)
# T4 construct: gene SIK1
# How it was run: as §1
# CIT = CIT (Homo sapiens, UniProt O14578)
# How it was run: as §1
# ERN1 = ERN1 (Homo sapiens, UniProt O75460)
# Chain of ERN1 (O75460 whole entry): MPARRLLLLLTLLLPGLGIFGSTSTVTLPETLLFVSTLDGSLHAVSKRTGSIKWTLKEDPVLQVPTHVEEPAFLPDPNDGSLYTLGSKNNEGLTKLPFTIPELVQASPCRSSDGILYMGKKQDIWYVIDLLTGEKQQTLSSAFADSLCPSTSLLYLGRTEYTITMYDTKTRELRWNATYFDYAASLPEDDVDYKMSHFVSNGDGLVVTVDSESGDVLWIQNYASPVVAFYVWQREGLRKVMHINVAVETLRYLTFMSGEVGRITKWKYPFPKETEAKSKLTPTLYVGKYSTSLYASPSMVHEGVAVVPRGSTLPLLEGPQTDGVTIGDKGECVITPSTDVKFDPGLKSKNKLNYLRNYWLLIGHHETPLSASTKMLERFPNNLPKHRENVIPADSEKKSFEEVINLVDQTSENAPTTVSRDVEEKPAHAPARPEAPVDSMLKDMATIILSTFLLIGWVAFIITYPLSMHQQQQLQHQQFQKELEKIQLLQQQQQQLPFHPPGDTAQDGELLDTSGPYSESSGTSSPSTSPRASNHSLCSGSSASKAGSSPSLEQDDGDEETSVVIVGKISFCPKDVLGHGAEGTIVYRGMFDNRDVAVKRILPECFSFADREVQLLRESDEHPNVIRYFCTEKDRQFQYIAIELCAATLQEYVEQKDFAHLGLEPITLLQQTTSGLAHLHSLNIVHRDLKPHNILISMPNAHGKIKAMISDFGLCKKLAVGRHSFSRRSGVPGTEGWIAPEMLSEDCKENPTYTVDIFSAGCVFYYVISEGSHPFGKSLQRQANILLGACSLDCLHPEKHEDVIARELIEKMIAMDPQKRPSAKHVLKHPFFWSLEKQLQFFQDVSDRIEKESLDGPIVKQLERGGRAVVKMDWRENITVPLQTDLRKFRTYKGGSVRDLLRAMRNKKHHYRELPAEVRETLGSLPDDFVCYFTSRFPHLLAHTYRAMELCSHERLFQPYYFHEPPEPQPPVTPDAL
# How it was run: as §1
# ACVRL1 = ACVRL1 (Homo sapiens, UniProt P37023)
# How it was run: as §1
# DCAMKL3 = biological target: T5, DCAMKL3 (Homo sapiens, UniProt Q9C098)
# T5 construct: gene DCLK3
# T5 sequence (Q9C098 whole entry): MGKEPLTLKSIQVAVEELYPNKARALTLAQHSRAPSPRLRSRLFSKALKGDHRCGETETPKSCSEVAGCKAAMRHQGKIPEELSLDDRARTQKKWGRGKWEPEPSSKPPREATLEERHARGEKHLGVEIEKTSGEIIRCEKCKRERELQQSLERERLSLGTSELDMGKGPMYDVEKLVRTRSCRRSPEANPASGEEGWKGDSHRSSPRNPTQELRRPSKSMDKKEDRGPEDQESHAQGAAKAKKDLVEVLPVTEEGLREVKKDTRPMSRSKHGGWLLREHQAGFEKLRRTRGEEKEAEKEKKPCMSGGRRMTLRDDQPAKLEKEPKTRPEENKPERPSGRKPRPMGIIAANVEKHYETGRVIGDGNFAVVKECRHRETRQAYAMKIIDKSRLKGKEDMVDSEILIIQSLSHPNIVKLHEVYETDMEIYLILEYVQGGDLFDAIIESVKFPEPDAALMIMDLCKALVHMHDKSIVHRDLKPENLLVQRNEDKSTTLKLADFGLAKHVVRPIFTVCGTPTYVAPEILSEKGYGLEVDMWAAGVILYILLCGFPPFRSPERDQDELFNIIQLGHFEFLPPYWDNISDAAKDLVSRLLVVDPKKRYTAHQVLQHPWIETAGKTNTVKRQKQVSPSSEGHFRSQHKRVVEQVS
# How it was run: as §1
# [2] = biological target: T6, RPS6KA4(Kin.Dom.1-N-terminal) (Homo sapiens, UniProt O75676)
# T6 construct: Kin.Dom.1-N-terminal
# T6 sequence (O75676 whole entry): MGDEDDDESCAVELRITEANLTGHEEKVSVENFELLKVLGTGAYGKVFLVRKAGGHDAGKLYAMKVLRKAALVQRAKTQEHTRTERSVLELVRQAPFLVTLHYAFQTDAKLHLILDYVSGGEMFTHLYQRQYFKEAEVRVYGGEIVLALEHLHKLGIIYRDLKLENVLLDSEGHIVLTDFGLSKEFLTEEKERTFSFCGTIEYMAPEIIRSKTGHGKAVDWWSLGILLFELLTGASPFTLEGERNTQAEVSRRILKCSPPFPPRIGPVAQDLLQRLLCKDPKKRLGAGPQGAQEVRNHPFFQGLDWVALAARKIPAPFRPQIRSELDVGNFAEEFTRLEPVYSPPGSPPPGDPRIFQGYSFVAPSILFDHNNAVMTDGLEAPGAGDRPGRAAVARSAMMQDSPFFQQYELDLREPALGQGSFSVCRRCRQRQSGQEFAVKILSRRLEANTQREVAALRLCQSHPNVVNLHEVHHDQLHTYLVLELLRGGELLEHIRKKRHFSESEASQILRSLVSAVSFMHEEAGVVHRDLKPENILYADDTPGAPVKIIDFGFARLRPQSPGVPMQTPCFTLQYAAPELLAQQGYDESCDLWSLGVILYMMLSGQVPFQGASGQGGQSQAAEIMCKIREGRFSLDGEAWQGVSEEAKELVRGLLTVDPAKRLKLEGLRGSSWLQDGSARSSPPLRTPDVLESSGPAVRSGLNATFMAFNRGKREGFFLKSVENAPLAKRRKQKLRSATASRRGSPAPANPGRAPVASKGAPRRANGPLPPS
# How it was run: as §1
# GSK3A = GSK3A (Homo sapiens, UniProt P49840)
# Chain of GSK3A (P49840 whole entry): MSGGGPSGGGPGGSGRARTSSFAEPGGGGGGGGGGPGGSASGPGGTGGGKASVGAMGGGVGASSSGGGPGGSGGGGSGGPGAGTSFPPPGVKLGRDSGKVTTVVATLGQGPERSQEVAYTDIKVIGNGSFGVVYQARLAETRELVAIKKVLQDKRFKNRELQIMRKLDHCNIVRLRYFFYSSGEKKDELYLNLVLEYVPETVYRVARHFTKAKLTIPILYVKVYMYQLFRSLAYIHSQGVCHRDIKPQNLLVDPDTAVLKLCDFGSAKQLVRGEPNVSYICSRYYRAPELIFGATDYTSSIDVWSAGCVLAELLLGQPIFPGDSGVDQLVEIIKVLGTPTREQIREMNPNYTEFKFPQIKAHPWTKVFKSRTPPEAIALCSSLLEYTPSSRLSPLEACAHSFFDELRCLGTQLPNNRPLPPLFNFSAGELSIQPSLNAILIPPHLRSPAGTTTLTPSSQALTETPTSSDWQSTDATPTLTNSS
# How it was run: as §1
# GRK1 = GRK1 (Homo sapiens, UniProt Q15835)
# Chain of GRK1 (Q15835 whole entry): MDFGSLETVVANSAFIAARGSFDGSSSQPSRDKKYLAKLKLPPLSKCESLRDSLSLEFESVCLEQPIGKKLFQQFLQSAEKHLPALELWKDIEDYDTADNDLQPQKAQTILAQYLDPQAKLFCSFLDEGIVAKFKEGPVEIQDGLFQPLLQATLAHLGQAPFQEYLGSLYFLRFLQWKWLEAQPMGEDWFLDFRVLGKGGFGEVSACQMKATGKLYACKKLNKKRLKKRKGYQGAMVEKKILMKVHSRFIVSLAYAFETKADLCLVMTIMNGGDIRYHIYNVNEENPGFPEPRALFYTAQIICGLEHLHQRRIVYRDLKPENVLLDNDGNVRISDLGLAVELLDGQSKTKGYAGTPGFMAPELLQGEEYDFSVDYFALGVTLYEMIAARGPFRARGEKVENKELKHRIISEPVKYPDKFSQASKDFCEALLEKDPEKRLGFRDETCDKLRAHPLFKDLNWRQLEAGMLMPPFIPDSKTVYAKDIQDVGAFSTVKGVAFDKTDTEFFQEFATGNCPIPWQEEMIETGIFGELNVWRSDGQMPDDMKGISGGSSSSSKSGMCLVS
# How it was run: as §1
# ITK = ITK (Homo sapiens, UniProt Q08881)
# Chain of ITK (Q08881 whole entry): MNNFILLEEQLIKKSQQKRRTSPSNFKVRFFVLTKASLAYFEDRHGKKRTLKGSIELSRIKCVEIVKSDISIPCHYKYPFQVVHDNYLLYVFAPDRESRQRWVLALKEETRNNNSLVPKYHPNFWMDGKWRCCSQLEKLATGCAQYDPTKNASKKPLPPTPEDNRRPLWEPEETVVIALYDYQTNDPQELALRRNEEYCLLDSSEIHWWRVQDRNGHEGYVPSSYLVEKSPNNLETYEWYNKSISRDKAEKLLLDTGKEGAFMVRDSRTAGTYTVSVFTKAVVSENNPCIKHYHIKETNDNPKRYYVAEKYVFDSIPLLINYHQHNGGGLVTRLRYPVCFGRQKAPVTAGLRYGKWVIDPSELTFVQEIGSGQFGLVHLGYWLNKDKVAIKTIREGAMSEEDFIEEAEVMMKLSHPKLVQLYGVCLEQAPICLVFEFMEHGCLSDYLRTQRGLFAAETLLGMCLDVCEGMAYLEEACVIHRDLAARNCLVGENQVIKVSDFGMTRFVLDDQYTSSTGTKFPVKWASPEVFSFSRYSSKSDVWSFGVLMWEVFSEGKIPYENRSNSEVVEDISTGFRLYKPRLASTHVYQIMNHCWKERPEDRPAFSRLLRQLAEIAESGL
# How it was run: as §1
# PIK3CA(C420R) = PIK3CA(C420R) (Homo sapiens, UniProt P42336, C420R)
# How it was run: as §1
# LOK = biological target: T7, LOK (Homo sapiens, UniProt O94804)
# T7 construct: gene STK10
# How it was run: as §1
# DCAMKL2 = biological target: T8, DCAMKL2 (Homo sapiens, UniProt Q8N568)
# T8 construct: gene DCLK2
# How it was run: as §1
# [3] = biological target: T9, RSK2(Kin.Dom.2-C-terminal) (Homo sapiens, UniProt P51812)
# T9 construct: gene RPS6KA3; Kin.Dom.2-C-terminal
# How it was run: as §1
# ANKK1 = ANKK1 (Homo sapiens, UniProt Q8NFD2)
# How it was run: as §1
smiles,measurement,setting,value
"Cc1ncccc1Oc1sc(C(N)=O)c2c1-c1c(cnn1C)CC2 [T-474, 1-methyl-8-((2-methylpyridin-3-yl)oxy)-4,5-dihydro-1H-thieno[3,4-g]indazole-6-carboxamide]",remaining binding at 0.3 µM,LIMK2,79%
same,remaining binding at 0.3 µM,MEK5,100%
same,remaining binding at 0.3 µM,EPHA1,73%
same,remaining binding at 0.3 µM,CAMKK2,100%
same,remaining binding at 0.3 µM,PIK3CA(H1047Y),54%
same,remaining binding at 0.3 µM,[1],100%
same,remaining binding at 0.3 µM,TRKC,87%
same,remaining binding at 0.3 µM,SIK,100%
same,remaining binding at 0.3 µM,CIT,93%
same,remaining binding at 0.3 µM,ERN1,89%
same,remaining binding at 0.3 µM,ACVRL1,87%
same,remaining binding at 0.3 µM,DCAMKL3,76%
same,remaining binding at 0.3 µM,[2],100%
same,remaining binding at 0.3 µM,GSK3A,70%
same,remaining binding at 0.3 µM,GRK1,100%
same,remaining binding at 0.3 µM,ITK,100%
same,remaining binding at 0.3 µM,PIK3CA(C420R),95%
same,remaining binding at 0.3 µM,LOK,100%
same,remaining binding at 0.3 µM,DCAMKL2,100%
same,remaining binding at 0.3 µM,[3],100%
same,remaining binding at 0.3 µM,ANKK1,100%
"O=C(/C=C/c1cnccc1-c1ccc(F)cc1)Nc1ccc(CCc2nnco2)cc1 [T-418, (2E)-3-(4-(4-fluorophenyl)pyridin-3-yl)-N-(4-(2-(1,3,4-oxadiazol-2-yl)ethyl)phenyl)acrylamide]",remaining binding at 0.3 µM,LIMK2; sheet T-418,74%
same,remaining binding at 0.3 µM,MEK5; sheet T-418,100%
same,remaining binding at 0.3 µM,EPHA1; sheet T-418,71%
same,remaining binding at 0.3 µM,CAMKK2; sheet T-418,100%
same,remaining binding at 0.3 µM,PIK3CA(H1047Y); sheet T-418,73%
same,remaining binding at 0.3 µM,[1]; sheet T-418,100%
same,remaining binding at 0.3 µM,TRKC; sheet T-418,82%
same,remaining binding at 0.3 µM,SIK; sheet T-418,87%
same,remaining binding at 0.3 µM,CIT; sheet T-418,95%
same,remaining binding at 0.3 µM,ERN1; sheet T-418,100%
same,remaining binding at 0.3 µM,ACVRL1; sheet T-418,77%
same,remaining binding at 0.3 µM,DCAMKL3; sheet T-418,83%
same,remaining binding at 0.3 µM,[2]; sheet T-418,90%
same,remaining binding at 0.3 µM,GSK3A; sheet T-418,64%
same,remaining binding at 0.3 µM,GRK1; sheet T-418,100%
same,remaining binding at 0.3 µM,ITK; sheet T-418,100%
same,remaining binding at 0.3 µM,PIK3CA(C420R); sheet T-418,86%
same,remaining binding at 0.3 µM,LOK; sheet T-418,93%
same,remaining binding at 0.3 µM,DCAMKL2; sheet T-418,100%
same,remaining binding at 0.3 µM,[3]; sheet T-418,100%
same,remaining binding at 0.3 µM,ANKK1; sheet T-418,89%
